In general, melting point refers to the temperature of the solid-liquid transition. By IC50 is commonly meant the concentration that gives 50% inhibition.

Molecules are shown by their SMILES.

This passage reports melting point and IC50 results from patent publication US9593108B2, “Compounds and methods for antiviral treatment” (PTC Therapeutics, Inc., priority 2009, dated 2017).

For data set [1], the system named is HCV replicon RNA (GenBank Accession No. AJ242654). The data set can be described thus: HCV Replicon Assay (replicon RNA reduction and/or Fluc reporter signal). The format is cell-based, Hepatitis C virus. The settings on record: Hepatitis C virus, 72 h, replicon-containing cells cultured with test compound for up to 3 days. Summed up: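 Bicistronic replicon-containing cells cultured with compound for up to 3 days, with interferon as positive control. Inhibition quantified by replicon RNA reduction and/or Fluc reporter signal; IC50 values generally derived from replicon RNA reduction.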
For orientation: In antiviral work, replicon cells carry a viral genome segment that copies itself.

`CC(C)(C)NS(=O)(=O)c1ccc(-c2c(C#N)c3cc(C(F)(F)F)cnc3n2C2CCC2)nc1` [Cpd 297, N-tert-butyl-6-[3-cyano-1-cyclobutyl-5-(trifluoromethyl)-1H-pyrrolo[2,3-b]pyridin-2-yl]pyridine-3-sulfonamide]: the melting point lay within 176 to 178 °C. Also, the IC50 in data set [1] is below 500 nM.
For `Cc1cc(-c2c(C#N)c3cc(C(F)(F)F)cnc3n2C2CCC2)ncc1S(=O)(=O)N[C@@H](C)C(F)(F)F` [Cpd 298, 6-[3-cyano-1-cyclobutyl-5-(trifluoromethyl)-1H-pyrrolo[2,3-b]pyridin-2-yl]-4-methyl-N-[(2S)-1,1,1-trifluoropropan-2-yl]pyridine-3-sulfonamide], in that order: 166 to 171 °C and below 500 nM.
For `Cc1cnc2c(c1)c(C#N)c(-c1cccc(NS(=O)(=O)C(C)C)c1)n2C1CCC1` [Cpd 299, N-[3-(3-cyano-1-cyclobutyl-5-methyl-1H-pyrrolo[2,3-b]pyridin-2-yl)phenyl]propane-2-sulfonamide], in that order: 166 to 173 °C and 2000 to 5000 nM.
For `C[C@H](NS(=O)(=O)c1ccc(-c2c(C#N)c3cc(C(F)(F)F)cnc3n2C2CCC2)cc1)C(F)(F)F` [Cpd 300, 4-[3-cyano-1-cyclobutyl-5-(trifluoromethyl)-1H-pyrrolo[2,3-b]pyridin-2-yl]-N-[(2S)-1,1,1-trifluoropropan-2-yl]benzenesulfonamide] the same measures were 218 to 220 °C and below 500 nM.
On to `Cc1cc(S(=O)(=O)N[C@@H](C)C(F)(F)F)cnc1-c1c(C#N)c2cc(C(F)(F)F)cnc2n1C1CCC1` [Cpd 301, 6-[3-cyano-1-cyclobutyl-5-(trifluoromethyl)-1H-pyrrolo[2,3-b]pyridin-2-yl]-5-methyl-N-[(2S)-1,1,1-trifluoropropan-2-yl]pyridine-3-sulfonamide], for which the melting point was 190 to 194 °C. The same compound gave an IC50 in data set [1] below 500 nM.
For `N#Cc1c(-c2ccc(S(=O)(=O)NC3CCC3)cn2)n(C2CCC2)c2ncc(C(F)(F)F)cc12` [Cpd 302, 6-[3-cyano-1-cyclobutyl-5-(trifluoromethyl)-1H-pyrrolo[2,3-b]pyridin-2-yl]-N-cyclobutylpyridine-3-sulfonamide], in that order: 197 to 199 °C and below 500 nM.
On to `C[C@H](NS(=O)(=O)c1ccc(-c2c(C#N)c3cc(C(F)(F)F)cnc3n2-c2ncccn2)nc1)C(F)(F)F` [Cpd 303, 6-[3-cyano-1-(pyrimidin-2-yl)-5-(trifluoromethyl)-1H-pyrrolo[2,3-b]pyridin-2-yl]-N-[(2S)-1,1,1-trifluoropropan-2-yl]pyridine-3-sulfonamide], for which the melting point was 213 to 215 °C. Moreover, in data set [1], the IC50 is below 500 nM.
For `C[C@H](NS(=O)(=O)c1ccc(-c2c(C(N)=O)c3cc(C(F)(F)F)cnc3n2C2CCC2)nc1)C(F)(F)F` [Cpd 304, 1-cyclobutyl-5-(trifluoromethyl)-2-(5-{[(2S)-1,1,1-trifluoropropan-2-yl]sulfamoyl}pyridin-2-yl)-1H-pyrrolo[2,3-b]pyridine-3-carboxamide] the same measures were 219 to 221 °C and below 500 nM.
Turning to `C[C@H](NS(=O)(=O)c1ccc(-c2c(C#N)c3cc(S(C)(=O)=O)cnc3n2C2CCCC2)nc1)C(F)(F)F` [Cpd 305, 6-[3-cyano-1-cyclopentyl-5-(methylsulfonyl)-1H-pyrrolo[2,3-b]pyridin-2-yl]-N-[(2S)-1,1,1-trifluoropropan-2-yl]pyridine-3-sulfonamide], the melting point was in the range of 260 to 261 °C. The compound also returned a concentration for half-maximal inhibition (IC50) in data set [1] below 500 nM.
For `C[C@H](NS(=O)(=O)c1ccc(-c2c(C#N)c3cc(Cl)cnc3n2-c2ccccn2)nc1)C(F)(F)F` [Cpd 306, 6-[5-chloro-3-cyano-1-(pyridin-2-yl)-1H-pyrrolo[2,3-b]pyridin-2-yl]-N-[(2S)-1,1,1-trifluoropropan-2-yl]pyridine-3-sulfonamide], in that order: 179 to 181 °C and below 500 nM.
